Test results taken from PMC9098913, “In vitro reconstitution of Escherichia coli divisome activation” (Nature Communications, 2022).
Read-outs that look alike come from different tables or passages of the source.

How the values were obtained:
FtsZ filaments = assay: Slope of linear regression FtsZ vs FtsA intensity (packing of FtsA below FtsZ filaments); type: biochemical, E. coli; details: for Slope of linear regression: Fig. S2h
From the text: While fluorescence microscopy cannot resolve molecular assemblies of these small dimensions, a higher packing density of FtsA R286W below FtsZ filaments could explain the enhanced colocalization with FtsZ. To test this hypothesis, we analysed the pixel-by-pixel relationship between the fluorescence intensities of FtsZ and FtsA in dual-colour fluorescence time-lapse movies. […] At low FtsA concentrations, we found the slopes for both proteins to be similar.

FtsZ = details: for Pearson correlation coefficient (PCC) FtsA/FtsZ: 1.25 µM FtsZ
Procedure: Additionally, the reaction chamber contained 4 mM ATP and 4 mM GTP, as well as a scavenging system to minimize photobleaching effects: 30 mM d-glucose, 0.050 mg ml^−1 Glucose Oxidase, 0.016 mg ml^−1 Catalase, 1 mM DTT and 1 mM Trolox. Prior addition of all components a corresponding buffer volume was removed from the chamber to obtain a total reaction volume of 100 µl. The dynamic protein pattern was monitored by time-lapse TIRF microscopy at one frame per 2 s and 50 ms exposure time.
Time-lapse videos were first intensity-corrected and contrast-enhanced to avoid bleaching effects and simplify subsequent analysis. To remove contributions of X–Y drift, the videos were processed with the Linear Stack Alignment with SIFT plugin. […] Subsequently, regions of interest (ROIs) in the center of the stacks were chosen for colocalization analysis. The Pearson’s correlation coefficient (PCC) was quantified with the Image CorrelationJ 1o plugin. To extract information about the relative ratio of FtsZ/FtsA molecules (slope of linear regression), we also used the Image CorrelationJ 1o plugin. As an output, the plugin provides a scatterplot of FtsZ vs FtsA intensities, to which we fitted a linear slope y=k⋅x+d , where k is the slope and d the offset. The slope was used as an estimate for the ratio of FtsA molecules below FtsZ filaments[42].

[1] = 0.1µM FtsA, replicate 1 (row printed 'goo')
[2] = 0.2µM FtsA, replicate 1 (row printed 'goo')
[3] = 0.4 µM FtsA, mean ± s.d., WT vs R286W p-value 1.28 × 10^−5
[4] = 0.4µM FtsA, replicate 1 (row printed 'goo')
[5] = 0.8µM FtsA, replicate 1 (row printed 'goo')

“FtsA WT: wild-type E. coli actin-homologue FtsA, membrane anchor of FtsZ” was tested. Which “Slope of linear regression FtsZ vs FtsA” value (FtsZ filaments; 0.1 µM FtsA, mean) did it give?
The value was 0.64.

What about the “Slope of linear regression, mean of single experiment” value (shortened to “Slope … of single experiment”) (FtsZ filaments; 0.1µM, replicate column 1) of the same molecule?
Its value is 0.68.

And the “Slope … of single experiment” value (FtsZ filaments; 0.1µM, replicate column 2)?
Its value is 0.37.

And the “Slope … of single experiment” value (FtsZ filaments; 0.1µM, replicate column 3)?
Its value is 0.74.

And the “Slope … of single experiment” value (FtsZ filaments; 0.1µM, replicate column 4)?
The value was 0.70.

And the “Slope of linear regression FtsZ vs FtsA” value (FtsZ filaments; 0.2 µM FtsA, mean)?
The value was 0.45.

And the “Slope … of single experiment” value (FtsZ filaments; 0.2µM, replicate column 1)?
Its value is 0.40.

And the “Slope … of single experiment” value (FtsZ filaments; 0.2µM, replicate column 2)?
Its value is 0.56.

And the “Slope … of single experiment” value (FtsZ filaments; 0.2µM, replicate column 3)?
Its value is 0.40.

What about the “Slope … of single experiment” value (FtsZ filaments; 0.4µM, replicate column 1) of the same molecule?
Its value is 0.0747.

What about the “Slope … of single experiment” value (FtsZ filaments; 0.4µM, replicate column 2) of the same molecule?
The value was 0.0547.

And the “Slope … of single experiment” value (FtsZ filaments; 0.4µM, replicate column 3)?
Its value is 0.49.

And the “Slope … of single experiment” value (FtsZ filaments; 0.4µM, replicate column 4)?
Its value is 0.31.

And the “Slope of linear regression FtsZ vs FtsA” value (FtsZ filaments; 0.8 µM FtsA, mean)?
The value was 0.17.

What about the “Slope … of single experiment” value (FtsZ filaments; 0.8µM, replicate column 1) of the same molecule?
Its value is 0.16.

And the “Slope … of single experiment” value (FtsZ filaments; 0.8µM, replicate column 2)?
The value was 0.15.

And the “Slope … of single experiment” value (FtsZ filaments; 0.8µM, replicate column 3)?
Its value is 0.23.

And the “Slope … of single experiment” value (FtsZ filaments; 0.8µM, replicate column 4)?
Its value is 0.13.

What about the “Slope of linear regression” value (FtsZ filaments; + FtsN, 0.10 µM, mean) of the same molecule?
Its value is 0.81 a.u.

And the “Slope of linear regression” value (FtsZ filaments; + FtsN, 0.10 µM, replicate 1)?
Its value is 0.84 a.u.

What about the “Slope of linear regression” value (FtsZ filaments; + FtsN, 0.10 µM, replicate 2) of the same molecule?
Its value is 0.82 a.u.

What about the “Slope of linear regression” value (FtsZ filaments; + FtsN, 0.10 µM, replicate 3) of the same molecule?
The value was 0.78 a.u.

And the “Slope of linear regression” value (FtsZ filaments; + FtsN, 0.20 µM, mean)?
The value was 0.65 a.u.

What about the “Slope of linear regression” value (FtsZ filaments; + FtsN, 0.20 µM, replicate 1) of the same molecule?
The value was 0.62 a.u.

What about the “Slope of linear regression” value (FtsZ filaments; + FtsN, 0.20 µM, replicate 2) of the same molecule?
The value was 0.61 a.u.

And the “Slope of linear regression” value (FtsZ filaments; + FtsN, 0.20 µM, replicate 3)?
Its value is 0.72 a.u.

What about the “Slope of linear regression” value (FtsZ filaments; + FtsN, 0.40 µM, mean) of the same molecule?
Its value is 0.35 a.u.

And the “Slope of linear regression” value (FtsZ filaments; + FtsN, 0.40 µM, replicate 1)?
The value was 0.43 a.u.

What about the “Slope of linear regression” value (FtsZ filaments; + FtsN, 0.40 µM, replicate 2) of the same molecule?
The value was 0.47 a.u.

And the “Slope of linear regression” value (FtsZ filaments; + FtsN, 0.40 µM, replicate 3)?
The value was 0.13 a.u.

What about the “Slope of linear regression” value (FtsZ filaments; without FtsN, 0.10 µM, mean) of the same molecule?
Its value is 0.70 a.u.

And the “Slope of linear regression” value (FtsZ filaments; without FtsN, 0.10 µM, replicate 1)?
Its value is 0.52 a.u.

And the “Slope of linear regression” value (FtsZ filaments; without FtsN, 0.10 µM, replicate 2)?
The value was 0.85 a.u.

What about the “Slope of linear regression” value (FtsZ filaments; without FtsN, 0.10 µM, replicate 3) of the same molecule?
Its value is 0.71 a.u.

And the “Slope of linear regression” value (FtsZ filaments; without FtsN, 0.20 µM, mean)?
Its value is 0.59 a.u.

And the “Slope of linear regression” value (FtsZ filaments; without FtsN, 0.20 µM, replicate 1)?
Its value is 0.55 a.u.

What about the “Slope of linear regression” value (FtsZ filaments; without FtsN, 0.20 µM, replicate 2) of the same molecule?
The value was 0.56 a.u.

What about the “Slope of linear regression” value (FtsZ filaments; without FtsN, 0.20 µM, replicate 3) of the same molecule?
Its value is 0.66 a.u.

And the “Slope of linear regression” value (FtsZ filaments; without FtsN, 0.40 µM, mean)?
Its value is 0.16 a.u.

And the “Slope of linear regression” value (FtsZ filaments; without FtsN, 0.40 µM, replicate 1)?
Its value is 0.24 a.u.

What about the “Slope of linear regression” value (FtsZ filaments; without FtsN, 0.40 µM, replicate 2) of the same molecule?
The value was 0.066 a.u.

What about the “Slope of linear regression” value (FtsZ filaments; without FtsN, 0.40 µM, replicate 3) of the same molecule?
The value was 0.18 a.u.

What about the “Pearson correlation coefficient (PCC) FtsA/FtsZ” value (FtsZ; 0.1 µM FtsA, steady state about 15 min, mean ± s.d.) of the same molecule?
Its value is 0.78 ± 0.04.

What about the “PCC FtsZ/FtsA” value (FtsZ; 0.1µM FtsA, Exp. 2) of the same molecule?
The value was 0.79.

And the “PCC FtsZ/FtsA” value (FtsZ; [1])?
Its value is 0.77.

And the “Pearson correlation coefficient (PCC) FtsA/FtsZ” value (FtsZ; 0.2 µM FtsA, steady state about 15 min, mean ± s.d.)?
The value was 0.69 ± 0.06.

What about the “PCC FtsZ/FtsA” value (FtsZ; 0.2µM FtsA, Exp. 2) of the same molecule?
The value was 0.62.

What about the “PCC FtsZ/FtsA” value (FtsZ; [2]) of the same molecule?
Its value is 0.61.

And the “Pearson correlation coefficient (PCC) FtsA/FtsZ” value (FtsZ; [3])?
Its value is 0.32 ± 0.12.

What about the “PCC FtsZ/FtsA” value (FtsZ; 0.4µM FtsA, Exp. 2) of the same molecule?
The value was 0.40.

And the “PCC FtsZ/FtsA” value (FtsZ; [4])?
Its value is 0.43.

And the “Pearson correlation coefficient (PCC) FtsA/FtsZ” value (FtsZ; 0.8 µM FtsA, mean ± s.d.)?
Its value is 0.27 ± 0.09.

What about the “PCC FtsZ/FtsA” value (FtsZ; 0.8µM FtsA, Exp. 2) of the same molecule?
Its value is 0.29.

And the “PCC FtsZ/FtsA” value (FtsZ; [5])?
The value was 0.38.

B1: FtsA R286W (protein)
chain: MIKATDRKLVVGLEIGTAKVAALVGEVLPDGMVNIIGVGSCPSRGMDKGGVNDLESVVKCVQRAIDQAELMADCQISSVYLALSGKHISCQNEIGMVPISEEEVTQEDVENVVHTAKSVRVRDEHRVLHVIPQEYAIDYQEGIKNPVGLSGVRMQAKVHLITCHNDMAKNIVKAVERCGLKVDQLIFAGLASSYSVLTEDERELGVCVVDIGGGTMDIAVYTGGALRHTKVIPYAGNVVTSDIAYAFGTPPSDAEAIKVRHGCALGSIVGKDESVEVPSVGGRPPWSLQRQTLAEVIEPRYTELLNLVNEEILQLQEKLRQQGVKHHLAAGIVLTGGAAQIEGLAACAQRVFHTQVRIGAPLNITGLTDYAQEPYYSTAVGLLHYGKESHLNGEAEVEKRVTASVGSWIKRLNSWLRKEF
modifications: Cy3 or Cy5 at the N-terminus in the labelled form (labelled CLEPTGG peptide conjugated to the 5xGly tag by sortagging); unlabelled protein also used; left off: TwinStrep-SUMO, N-terminal, cleaved | 5x
B1 was tested. Which “Slope of linear regression FtsZ vs FtsA” value (FtsZ filaments; 0.1 µM FtsA, mean) did it give?
Its value is 0.43.

And the “Slope … of single experiment” value (FtsZ filaments; 0.1µM, replicate column 1)?
Its value is 0.46.

What about the “Slope … of single experiment” value (FtsZ filaments; 0.1µM, replicate column 2) of the same molecule?
The value was 0.49.

And the “Slope … of single experiment” value (FtsZ filaments; 0.1µM, replicate column 3)?
The value was 0.39.

And the “Slope of linear regression FtsZ vs FtsA” value (FtsZ filaments; 0.2 µM FtsA, mean)?
The value was 0.60.

What about the “Slope … of single experiment” value (FtsZ filaments; 0.2µM, replicate column 1) of the same molecule?
The value was 0.53.

And the “Slope … of single experiment” value (FtsZ filaments; 0.2µM, replicate column 2)?
Its value is 0.81.

What about the “Slope … of single experiment” value (FtsZ filaments; 0.2µM, replicate column 3) of the same molecule?
The value was 0.58.

And the “Slope … of single experiment” value (FtsZ filaments; 0.4µM, replicate column 1)?
The value was 0.63.

What about the “Slope of linear regression FtsZ vs FtsA” value (FtsZ filaments; 0.8 µM FtsA, mean) of the same molecule?
Its value is 0.72.

What about the “Slope of linear regression FtsZ vs FtsA” value (FtsZ filaments; above 0.2 µM, remained constant) of the same molecule?
The value was ~ 0.7.

What about the “PCC FtsZ/FtsA” value (FtsZ; 0.1µM FtsA, Exp. 2) of the same molecule?
The value was 0.41.

And the “PCC FtsZ/FtsA” value (FtsZ; [1])?
Its value is 0.73.

And the “PCC FtsZ/FtsA” value (FtsZ; 0.2µM FtsA, Exp. 2)?
Its value is 0.77.

What about the “PCC FtsZ/FtsA” value (FtsZ; [2]) of the same molecule?
Its value is 0.89.

What about the “Pearson correlation coefficient (PCC) FtsA/FtsZ” value (FtsZ; [3]) of the same molecule?
Its value is 0.84 ± 0.05.

What about the “PCC FtsZ/FtsA” value (FtsZ; 0.4µM FtsA, Exp. 2) of the same molecule?
The value was 0.83.

And the “PCC FtsZ/FtsA” value (FtsZ; [4])?
Its value is 0.89.

And the “PCC FtsZ/FtsA” value (FtsZ; 0.8µM FtsA, Exp. 2)?
The value was 0.83.

And the “PCC FtsZ/FtsA” value (FtsZ; [5])?
The value was 0.88.

What about the “Pearson correlation coefficient (PCC) FtsA/FtsZ” value (FtsZ; all concentrations tested (0.1–0.8 µM)) of the same molecule?
Its value is “around 0.8”.
